Experimental data as given in PMC2673432 (Nucleic Acids Research, 2009).

Biological target: human L3MBTL2 4-MBT-repeat domain (4MBT, residues 170–625) (Homo sapiens, UniProt Q969R5)
Test: Isothermal titration calorimetry
Format: binding
Settings: ITC, 25°C, pH 7.5, 200 mM NaCl; values in Supplementary Figure 3

human L3MBTL2 4-MBT-repeat domain (4MBT, residues 170–625), sequence (Q969R5 170-625): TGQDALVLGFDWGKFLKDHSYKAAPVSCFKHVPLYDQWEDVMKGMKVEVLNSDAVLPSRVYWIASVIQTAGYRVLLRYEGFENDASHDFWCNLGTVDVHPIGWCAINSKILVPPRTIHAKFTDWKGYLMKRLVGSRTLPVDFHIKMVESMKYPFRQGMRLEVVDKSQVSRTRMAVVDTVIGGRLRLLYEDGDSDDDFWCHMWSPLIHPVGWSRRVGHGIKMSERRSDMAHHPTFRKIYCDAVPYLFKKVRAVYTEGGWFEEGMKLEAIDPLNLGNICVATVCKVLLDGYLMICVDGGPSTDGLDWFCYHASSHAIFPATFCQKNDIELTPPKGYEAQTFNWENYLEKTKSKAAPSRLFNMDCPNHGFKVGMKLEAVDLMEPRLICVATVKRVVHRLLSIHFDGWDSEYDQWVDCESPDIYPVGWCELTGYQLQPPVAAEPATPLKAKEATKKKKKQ

CNCCCC[C@H](N)C(=O)O [free mono-methylated lysine, mono-methylated lysine]
Relative binding affinity (in words): binds mono- and di-methylated lysine centrally located in a peptide more tightly than free mono-methylated lysine
